Laboratory results as given in US20240368219A1, “ACTIVATION OF E6AP/UBE3A-MEDIATED PROTEIN UBIQ[…] D[…] BY A CYCLIC GAMMA-AA PEPTIDE” (University of South Florida, priority 2022, published 2024).
Values joined by “and” are separate entries in the source; they are usually repeats but may differ in a detail not shown here. Identical values can stand only once.

Key:
HECT domain of E6AP = molecular target: T1, HECT domain of E6AP (Homo sapiens, UniProt Q05086); assay: Fluorescence polarization binding affinity of FITC-labeled peptides with the E6AP HECT domain; details: Kd of the peptide-HECT complex
T1 construct: serial dilution of E6AP HECT domain; inferred from pET28a vector and Ni-NTA purification; made in house; host or cells: E. coli BL21 (DE3) pLysS, plasmid pET28a-E6AP HECT
T1 sequence (Q05086 518-875 limits assumed): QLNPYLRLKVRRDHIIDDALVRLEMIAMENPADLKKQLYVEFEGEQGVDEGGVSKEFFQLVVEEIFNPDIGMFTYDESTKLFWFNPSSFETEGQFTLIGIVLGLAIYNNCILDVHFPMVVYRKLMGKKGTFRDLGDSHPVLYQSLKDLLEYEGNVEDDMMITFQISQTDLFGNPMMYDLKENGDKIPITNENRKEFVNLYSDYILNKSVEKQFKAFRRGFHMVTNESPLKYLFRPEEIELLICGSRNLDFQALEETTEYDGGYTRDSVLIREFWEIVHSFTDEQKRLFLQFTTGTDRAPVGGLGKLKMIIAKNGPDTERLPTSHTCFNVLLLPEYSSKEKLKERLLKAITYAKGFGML
Protocol: The library was screened based on the binding between the bead-anchored peptides with the HECT domain of E6AP with an N-terminal Flag tag that was recognized by an anti-Flag antibody labeled with AlexaFluor 488 that would emit green fluorescence. […] The peptide ligands from the screen were named P1-8 and they were resynthesized to measure their individual binding affinities with the HECT domain by fluorescence polarization (FP).
The binding affinity (Kd) of the peptides were measured by fluorescence polarization. Briefly, a constant amount of the 100 nM FITC-labeled cyclic peptide was incubated with a serial dilution of E6AP HECT domain. The Kd values was calculated using the following equation, in which the Lst and x refer to the concentration of peptide and protein, respectively.

[1] = Serum stability assay (25% serum, HPLC); assay type: in vitro ADME, human; details: 25% serum (v/v), 37° C., 24 h
Protocol: (§1) A distinctive characteristic of γ-AA peptides compared with canonical peptides is their remarkable resistance to protease. To assay the stability of P6 in presence of protease, P6 was incubated with 0.1 mg/mL pronase at 37° C. for 24 h.
The serum stabilities of peptides were determined in 25% (v/v) aqueous pooled serum from human male AB plasma (Sigma-Aldrich, Milan, Italy). 1 mg P6 was dissolved in 50 μL CH3CN/H2O (70:30, v/v) and then diluted in serum and incubated at 37° C. for 24 h. Then, 100 μL of solution was added to 100 μL of CH3CN on ice for 15 min and was centrifuged at 4° C. for 10 min. The supernatant was then analyzed by a Waters analytical HPLC system with a 1 mL/min flow rate and 5-100% linear gradient of solvent B (0.1% TFA in acetonitrile) in A (0.1% TFA in water) over the duration of 50 min. The UV detector was set to 215 nm.

pronase = assay: Enzymatic stability study with pronase (HPLC, MS); assay type: in vitro ADME; details: 0.1 mg/mL pronase, 37° C., 24 h
Protocol: as §1
0.01 mg/mL P6 was incubated with 0.1 mg/mL pronase in 100 mM ammonium bicarbonate buffer (pH 7.8) at 37° C. for 24 h. The reaction mixture was concentrated in a speed vacuum to remove the water and ammonium bicarbonate. The remains were dissolved in 100 μL H2O/CH3CN and analyzed by a Waters analytical HPLC system with a 1 mL/min flow rate and 5-100% linear gradient of solvent B (0.1% TFA in acetonitrile) in A (0.1% TFA in water) over the duration of 50 min. The UV detector was set to 215 nm.

Structure (SMILES)	Kd (HECT domain of E6AP)	stability in human serum [1]	stability in presence of protease (pronase)
CC(C)C[C@H]1CN(CC(N)=O)C(=O)CCSCc2ccc(cc2)C(=O)N[C@@H](C)CN(C(=O)Cc2ccc3ccccc3c2)CC(=O)N[C@@H](CC(C)C)CN(C(=O)CCc2ccccc2)CC(=O)N[C@@H](Cc2ccccc2)CN(C(=O)Cc2ccc3c(c2)OCO3)CC(=O)N1 [P3]	80 to 218 nM		
CC(C)C[C@H]1CN(CC(N)=O)C(=O)CCSCc2ccc(cc2)C(=O)N[C@@H](Cc2ccccc2)CN(C(=O)Cc2ccc3ccccc3c2)CC(=O)N[C@@H](CC(C)C)CN(C(=O)CCC2CCCCC2)CC(=O)N[C@@H](Cc2ccccc2)CN(C(=O)Cc2ccc3c(c2)OCO3)CC(=O)N1 [P4]	80 to 218 nM		
COc1cc(CC(=O)N2CC(=O)N[C@@H](Cc3ccccc3)CN(C(=O)CC3CC3)CC(=O)N[C@@H](CC(C)C)CN(CC(N)=O)C(=O)CCSCc3ccc(cc3)C(=O)N[C@@H](CCC(=O)O)CN(C(=O)Cc3ccc4c(c3)OCO4)CC(=O)N[C@@H](CC(C)C)C2)cc(OC)c1 [P5]	80 to 218 nM		
COc1cc(CC(=O)N2CC(=O)N[C@@H](Cc3ccccc3)CN(C(=O)CC3CC3)CC(=O)N[C@@H](CC(C)C)CN(CC(N)=O)C(=O)CCSCc3ccc(cc3)C(=O)N[C@@H](CCCCN)CN(C(=O)Cc3ccc4ccccc4c3)CC(=O)N[C@@H](CC(C)C)C2)cc(OC)c1 [P6]	80 to 218 nM and 218 nM	stability was confirmed	resistant to protease cleavage
COc1cc(CC(=O)N2CC(=O)N[C@@H](C)CN(C(=O)Cc3cc(OC)cc(OC)c3)CC(=O)N[C@@H](CC(C)C)CN(CC(N)=O)C(=O)CCSCc3ccc(cc3)C(=O)N[C@@H](Cc3ccccc3)CN(C(=O)Cc3ccc4c(c3)OCO4)CC(=O)N[C@@H](Cc3ccccc3)C2)cc(OC)c1 [P7]	80 to 218 nM		
C[C@H]1CN(C(=O)Cc2ccc3c(c2)OCO3)CC(=O)N[C@@H](Cc2ccccc2)CN(C(=O)Cc2ccc3ccccc3c2)CC(=O)N[C@@H](CCC(=O)O)CN(C(=O)CC2CC2)CC(=O)N[C@@H](Cc2ccccc2)CN(CC(N)=O)C(=O)CCSCc2ccc(cc2)C(=O)N1 [P8]	80 to 218 nM		
